Data taken from EP3383875B1, “3-PYRIMIDINYL PYRROLO [2,3-B] PYRIDINE AS ANTICANCER AGENTS AND THE PROCESS FOR THE PREPARATION THEREOF” (Council Of Scientific & Industrial Research, priority 2015, dated 2017).
Read-outs that look alike come from different tables or passages of the source.

Experiments:
[1] = molecular target: CDK-2/cyclin A (Homo sapiens, UniProt P24941); test: CDK inhibition assay, CDK-2/cyclin A against Histone HI, 33P-ATP; format: biochemical; conditions: at 500 nM
Procedure: Compounds were evaluated for their ability to inhibit CDK2 and CDK9 as given below.
CDK-2/cyclin A (5-20 mU diluted in 50 mM Hepes pH 7.5, 1 mM DTT, 0.02% Brij35, 100 mM NaCl) was assayed against Histone HI in a final volume of 25.5 µl containing 50 mM Hepes pH7.5, 1 mM DTT, 0.02% Brij35, 100 mM NaCl, Histone HI (1 mg/ml), 10 mM magnesium acetate and 0.02 mM [33P-g-ATP](500-1000 cpm/pmole) and incubated for 30 min at room temperature. Assays were stopped by addition of 5 µl of 0.5 M (3%) orthophosphoric acid and then harvested onto P81 Unifilter plates with a wash buffer of 50 mM orthophosphoric acid.

[2] = molecular target: CDK-9/Cyclin T1 (Homo sapiens, UniProt P50750); test: CDK inhibition assay, CDK-9/Cyclin T1 against substrate peptide, 33P-ATP; format: biochemical; conditions: at 500 nM
CDK-9/Cyclin T1, sequence (P50750 whole entry): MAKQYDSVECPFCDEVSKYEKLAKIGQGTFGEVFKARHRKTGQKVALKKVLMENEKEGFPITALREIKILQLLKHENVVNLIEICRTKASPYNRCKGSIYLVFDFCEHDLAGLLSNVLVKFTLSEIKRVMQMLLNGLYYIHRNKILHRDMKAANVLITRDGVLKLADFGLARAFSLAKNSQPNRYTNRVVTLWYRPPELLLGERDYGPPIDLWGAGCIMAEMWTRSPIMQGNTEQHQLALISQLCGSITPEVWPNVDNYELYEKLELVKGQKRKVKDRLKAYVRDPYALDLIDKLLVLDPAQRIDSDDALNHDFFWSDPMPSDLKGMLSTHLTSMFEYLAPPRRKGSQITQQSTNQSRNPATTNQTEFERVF
CDK-9/Cyclin T1, sequence (O60563 whole entry partner): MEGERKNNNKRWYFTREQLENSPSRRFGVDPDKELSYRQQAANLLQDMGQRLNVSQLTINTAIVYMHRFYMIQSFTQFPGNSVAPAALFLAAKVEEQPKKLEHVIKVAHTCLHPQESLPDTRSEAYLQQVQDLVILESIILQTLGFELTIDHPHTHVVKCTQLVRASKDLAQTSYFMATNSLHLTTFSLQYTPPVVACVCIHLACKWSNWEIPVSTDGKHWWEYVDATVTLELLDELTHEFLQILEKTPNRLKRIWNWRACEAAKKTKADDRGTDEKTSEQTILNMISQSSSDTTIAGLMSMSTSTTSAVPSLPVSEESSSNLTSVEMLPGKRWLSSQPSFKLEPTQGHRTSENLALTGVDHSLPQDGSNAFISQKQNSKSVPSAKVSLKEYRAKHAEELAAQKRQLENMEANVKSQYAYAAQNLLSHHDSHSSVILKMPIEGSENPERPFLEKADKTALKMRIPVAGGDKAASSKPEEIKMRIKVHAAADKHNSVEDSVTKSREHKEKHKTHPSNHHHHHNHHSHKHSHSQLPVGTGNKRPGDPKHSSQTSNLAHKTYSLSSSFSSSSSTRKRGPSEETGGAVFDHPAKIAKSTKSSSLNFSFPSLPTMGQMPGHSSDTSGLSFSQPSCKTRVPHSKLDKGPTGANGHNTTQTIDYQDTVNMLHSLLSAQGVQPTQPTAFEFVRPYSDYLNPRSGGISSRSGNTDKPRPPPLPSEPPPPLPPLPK
Procedure: (50-1000 cpm/pmole) and incubated for 30 min at room temperature. Assays were stopped by addition of 5 µl of 0.5 M (3%) orthophosphoric acid and then harvested onto P81 Unifilter plates with a wash buffer of 50 mM orthophosphoric acid.

[3] = Table-6, read-out: In vitro CDK2 % of inhibition
[4] = read-out: inhibition against CDK2
[5] = Table-6, read-out: In vitro CDK9 % of inhibition
[6] = read-out: inhibition against CDK9
[7] = Table-7, read-out: In vitro CDK2 % of inhibition
[8] = Table-7, read-out: In vitro CDK9 % of inhibition

| SMILES | inhibition at 0.5 µM [1, 3] [%] | inhibition at 0.5 µM [1, 4] [%] | inhibition at 0.5 µM [2, 5] [%] | inhibition at 0.5 µM [2, 6] [%] | inhibition at 0.5 µM [1, 7] [%] | inhibition at 0.5 µM [2, 8] [%] |
| --- | --- | --- | --- | --- | --- | --- |
| FC(F)(F)c1cccc(-c2cnc3[nH]cc(-c4ccnc(NC5CC5)n4)c3c2)c1 [1A4, N-cyclopropyl-4-(5-(3-(trifluoromethyl)phenyl)-1H-pyrrolo[2,3-b]pyridin-3-yl)pyrimidin-2-amine] | > 70 | > 70 | > 70 | > 70 |  |  |
| c1ccc(CCNc2nccc(-c3c[nH]c4ncc(-c5cccc6ccccc56)cc34)n2)cc1 [1B14, 4-(5-(naphthalen-1-yl)-1H-pyrrolo[2,3-b]pyridin-3-yl)-N-phenethylpyrimidin-2-amine] |  | > 50 |  | > 50 | > 50 | > 50 |
| c1ccc2c(-c3cnc4[nH]cc(-c5ccnc(NC6CCCCCC6)n5)c4c3)nccc2c1 [1A60, N-cycloheptyl-4-(5-(isoquinolin-1-yl)-1H-pyrrolo[2,3-b]pyridin-3-yl)pyrimidin-2-amine] |  | > 70 |  | > 70 | > 70 | > 70 |
| CC(=O)c1ccc(-c2cnc3[nH]cc(-c4ccnc(NCCc5ccccc5)n4)c3c2)cc1 [1B13, 1-(4-(3-(2-(phenethylamino)pyrimidin-4-yl)-1H-pyrrolo[2,3-b]pyridin-5-yl)phenyl)ethan-1-one] |  | > 50 |  | > 50 | > 50 | > 50 |
| Cc1ccc(-c2cnc3[nH]cc(-c4ccnc(NC5CC5)n4)c3c2)cc1 [1A6, N-cyclopropyl-4-(5-(p-tolyl)-1H-pyrrolo[2,3-b]pyridin-3-yl)pyrimidin-2-amine] | > 70 | > 70 | > 70 | > 70 |  |  |
| c1ccc2[nH]c(-c3cnc4[nH]cc(-c5ccnc(NC6CC6)n5)c4c3)cc2c1 [1A19, 4-(5-(1H-indol-2-yl)-1H-pyrrolo[2,3-b]pyridin-3-yl)-N-cyclopropylpyrimidin-2-amine] | > 70 | > 70 | > 70 | > 70 |  |  |
| Fc1cccc(-c2cnc3[nH]cc(-c4ccnc(NC5CCCCCC5)n4)c3c2)c1 [1A45, N-cycloheptyl-4-(5-(3-fluorophenyl)-1H-pyrrolo[2,3-b]pyridin-3-yl)pyrimidin-2-amine] | > 70 |  | > 70 |  |  |  |
| c1cc(-c2c[nH]c3ncc(-c4ccoc4)cc23)nc(NC2CCCC2)n1 [1A36, N-cyclopentyl-4-(5-(furan-3-yl)-1H-pyrrolo[2,3-b]pyridin-3-yl)pyrimidin-2-amine] | > 50 | > 50 | > 50 | > 50 |  |  |
| c1ccc(CCNc2nccc(-c3c[nH]c4ncc(-c5cc6ccccc6[nH]5)cc34)n2)cc1 [1B19, 4-(5-(1H-indol-2-yl)-1H-pyrrolo[2,3-b]pyridin-3-yl)-N-phenethylpyrimidin-2-amine] |  | > 50 |  | > 50 | > 50 | > 50 |
| Fc1cccc(-c2cnc3[nH]cc(-c4ccnc(NC5CCCC5)n4)c3c2)c1 [1A25, N-cyclopentyl-4-(5-(3-fluorophenyl)-1H-pyrrolo[2,3-b]pyridin-3-yl)pyrimidin-2-amine] | > 70 |  | > 70 |  |  |  |
| c1cc(-c2c[nH]c3ncc(-c4ccoc4)cc23)nc(NC2CCCCCC2)n1 [1A56, N-cycloheptyl-4-(5-(furan-3-yl)-1H-pyrrolo[2,3-b]pyridin-3-yl)pyrimidin-2-amine] |  | > 70 |  | > 70 | > 70 | > 70 |
| CSc1ccc(-c2cnc3[nH]cc(-c4ccnc(NC5CC5)n4)c3c2)cc1 [1A8, N-cyclopropyl-4-(5-(4-(methylthio)phenyl)-1H-pyrrolo[2,3-b]pyridin-3-yl)pyrimidin-2-amine] | > 70 | > 70 | > 70 | > 70 |  |  |
| c1ccc2c(-c3cnc4[nH]cc(-c5ccnc(NC6CCCCCC6)n5)c4c3)cccc2c1 [1A54, N-cycloheptyl-4-(5-(naphthalen-1-yl)-1H-pyrrolo[2,3-b]pyridin-3-yl)pyrimidin-2-amine] |  | > 70 |  | > 70 | > 70 | > 70 |
